Patent publication US20210196635A1, “DRUG-CONTAINING PARTICLE” (TOWA PHARMACEUTICAL CO., LTD., priority 2018, published 2021)

Experiment: Average particle diameter (D50) of powder
Type: physicochemical
Conditions: powder as used for coating
Excerpt: The term “an average particle diameter” used herein refers to a particle diameter of 50% cumulative percentage (D50) on volume-based measurement of powder particle, which can be measured on the mass with a commercially available laser diffraction type particle size distribution measuring device and sonic wave vibration type sieving analyzer.

Compound: C[C@H]1COc2c(N3CCN(C)CC3)c(F)cc3c(=O)c(C(=O)O)cn1c23.C[C@H]1COc2c(N3CCN(C)CC3)c(F)cc3c(=O)c(C(=O)O)cn1c23.O [Compound A, levofloxacin 0.5 hydrate]
- average particle diameter: 3.38 μm
